The target of experiment [1] is Delta-type opioid receptor (Mus musculus) (UniProt P32300). In words: Inhibition of delta opioid receptor-mediated SNC80 induced activation of G-Protein in ICR mouse brain at 0.1 to 1 uM by [35S]GTPgammaS binding. It is filed as functional, tissue-based.
Experiment [2] concerns the target Delta-type opioid receptor (Mus musculus, UniProt P32300). In words: Displacement of [3H]DPDPE from delta opioid receptor in ICR mouse whole brain. Background: In a radioligand displacement assay an active substance lowers the binding of a labelled ligand.
Experiment [3] addresses Mu-type opioid receptor (Mus musculus) (UniProt P42866). In words: Inhibition of mu opioid receptor-mediated DAMGO induced activation of G-Protein in ICR mouse brain at 0.1 to 1 uM by [35S]GTPgammaS binding. It is filed as functional.
For experiment [4], the target named is Kappa-type opioid receptor (Cavia porcellus, UniProt P41144). Briefly: Displacement of [3H]U69593 from kappa opioid receptor in guinea pig cerebellum.
The next experiment addresses Mu-type opioid receptor (Mus musculus, UniProt P42866). Briefly: Displacement of [3H]DAMGO from mu opioid receptor in ICR mouse whole brain.
Experiment [5] deals with Kappa-type opioid receptor (Cavia porcellus) (UniProt P41144). Briefly: Inhibition of kappa opioid receptor-mediated U50488 induced activation of G-Protein in guinea pig cerebellum at 0.1 to 1 uM by [35S]GTPgammaS binding. The format is functional, tissue-based. (Binding of GTPγS marks nucleotide exchange on a G protein.)
In experiment [6] the target is Mu-type opioid receptor (Mus musculus) (UniProt P42866). Briefly: Activation of mu opioid receptor-mediated G-protein activation in ICR mouse whole brain at 10 uM by [35S]GTPgammaS binding in presence of Beta-FNA. The format is functional.
For experiment [7], the system named is Mus musculus. In words: Antinociceptive activity against sc dosed ICR mouse by hot plate method. It is filed as functional, organism-based. In general terms: In hot-plate and tail-flick tests a longer latency is read as antinociception.
The test system of experiment [8] is Mus musculus. In words: Antinociceptive activity against sc dosed ICR mouse by tail flick method. The format is functional, organism-based.

pIC50: −log10 of the molar value. Calls of active or inactive are those of the source. No cut-off for these calls is given here.

Data on two compounds can be found in ChEMBL document CHEMBL1149881, “Syntheses of 4,6'-epoxymorphinan derivatives and their pharmacologies” (Bioorg Med Chem, 2008).

Sequence of Mu-type opioid receptor (Mus musculus) (P42866 whole entry): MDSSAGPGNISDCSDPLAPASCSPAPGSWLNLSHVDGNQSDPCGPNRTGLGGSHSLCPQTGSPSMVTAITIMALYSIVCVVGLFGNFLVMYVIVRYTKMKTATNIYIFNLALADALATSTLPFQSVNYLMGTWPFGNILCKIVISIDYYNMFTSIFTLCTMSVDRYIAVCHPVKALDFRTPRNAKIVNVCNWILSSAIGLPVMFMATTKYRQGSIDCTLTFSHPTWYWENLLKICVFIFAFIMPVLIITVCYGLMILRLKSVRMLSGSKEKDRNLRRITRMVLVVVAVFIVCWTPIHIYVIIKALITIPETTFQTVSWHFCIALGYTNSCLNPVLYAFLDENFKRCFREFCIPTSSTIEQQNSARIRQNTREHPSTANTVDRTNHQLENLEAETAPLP
Sequence of Delta-type opioid receptor (P32300 whole entry): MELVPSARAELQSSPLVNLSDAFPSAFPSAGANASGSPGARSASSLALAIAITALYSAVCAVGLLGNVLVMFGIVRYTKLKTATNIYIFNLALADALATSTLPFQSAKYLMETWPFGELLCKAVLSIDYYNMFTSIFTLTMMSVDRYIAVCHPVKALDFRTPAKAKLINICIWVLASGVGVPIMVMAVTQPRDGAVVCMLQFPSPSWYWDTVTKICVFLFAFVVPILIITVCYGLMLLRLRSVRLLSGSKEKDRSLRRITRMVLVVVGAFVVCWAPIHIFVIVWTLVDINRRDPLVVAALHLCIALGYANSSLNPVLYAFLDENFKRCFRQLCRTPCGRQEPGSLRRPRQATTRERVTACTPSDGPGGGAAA
Sequence of Kappa-type opioid receptor (P41144 whole entry): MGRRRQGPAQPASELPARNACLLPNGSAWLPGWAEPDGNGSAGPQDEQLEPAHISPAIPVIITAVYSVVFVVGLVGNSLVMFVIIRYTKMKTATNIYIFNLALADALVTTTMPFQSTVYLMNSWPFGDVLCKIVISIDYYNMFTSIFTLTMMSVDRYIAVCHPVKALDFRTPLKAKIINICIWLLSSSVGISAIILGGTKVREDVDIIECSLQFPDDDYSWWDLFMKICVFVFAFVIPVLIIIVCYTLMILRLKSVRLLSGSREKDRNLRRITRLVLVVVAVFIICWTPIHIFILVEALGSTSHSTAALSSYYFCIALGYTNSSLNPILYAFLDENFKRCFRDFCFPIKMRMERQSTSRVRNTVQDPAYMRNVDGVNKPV
Sequence of Mu-type opioid receptor (P42866 whole entry): as the sequence (P42866 whole entry) above
Sequence of Delta-type opioid receptor (Mus musculus) (P32300 whole entry): as the sequence (P32300 whole entry) above
Sequence of Kappa-type opioid receptor (Cavia porcellus) (P41144 whole entry): as the sequence (P41144 whole entry) above

Regarding `Oc1ccc2c3c1OC[C@H]1CC[C@]4(O)[C@H](C2)N(CC2CC2)CC[C@@]34C1`, the outcome in [1], in [3] and in experiment [5] was Active. In addition, the negative logarithm of the IC50 (pIC50) – broadly, −log10 of the IC50, conventionally taken in molar units – in experiment [2] is 7.24; in experiment [4], 9.01; at Mu-type opioid receptor it was 8.92.

Consider `COc1ccc2c3c1OC[C@H]1CC[C@]4(O)[C@H](C2)N(C)CC[C@@]34C1`, for which the result in experiment [6] was inactive. For the same compound, the negative logarithm of the IC50 (pIC50) is more than 6.30 in experiment [2], more than 6.30 in [4] and 6.74 on Mu-type opioid receptor. The Activity entry with Mus musculus [7] and in the experiment on Mus musculus [8] was “Dose-dependent effect” in each case. Further, the result in experiment [3] was Active.
